Key:
[1] = test system: NAD(P)H oxidase; assay: NAD(P)H oxidase activity in aortic homogenates (lucigenin photoemission); assay type: biochemical, rat; details: GK rats after LA therapy
Experimental: Determination of NAD(P)H oxidase activity in the aorta was determined based on superoxide induced lucigenin photoemission. Enzyme assays were carried out in a final volume of 1 ml. containing (in mM) 50 phosphate buffer; pH 7.0, 1 EGTA, 150 sucrose, 0.5 lucigenin, 0.1 NAD(P)H and tissue homogenate. Enzyme reactions were initiated with the addition of lucigenin. Photoemission, expressed in terms of relative light units (RLU), was measured every 5 min. using a luminometer. All assays were carried out in the dark at room temperature.

[2] = test system: control fibroblasts (CFs); assay: Cell viability after hydrogen peroxide (Cell Counting Kit-8), control fibroblasts; assay type: cell-based, rat; details: lipoic acid 500 μM, Nrf2-dependent
Excerpt: (§1) To determine the effect of α-lipoic acid on isolated cells from normal and diabetic rats, primary rat fibroblasts were derived from dorsal skin biopsies performed on four diabetic Coto Kakizaki rats (DFs) and four age-matched (12-14 months) and sex-matched (female) Wistar control rats (CFs). After sterilization in povidine solution, the rat skin was washed in sterile water and rinsed in 70% ethanol in phosphate-buffered saline (PBS). The epidermis and dermis were separated following overnight incubation in 0.25% Trypsin/EDTA at 4° C. Samples were washed, diced and digested for thirty minutes at 37° C. in collagenase type I (250 U/ml) dissolved in Dulbecco's modified Eagle medium (DMEM; Invitrogen) containing penicillin (100 U/ml), 2 mM L-glutamine and 26 mM HEPES. After collagenase treatment, the cells were dislodged, centrifuged and resuspended in medium supplemented with 10% fetal bovine serum. The cells were grown under standard conditions, and the medium was changed every three to four days. Control and diabetic fibroblasts were grown under normo-glycemic conditions (5.5 mM glucose) and used in experiments at passage 3 to 5.
Fibroblasts were seeded at 1×10^4 cells/well on a 96-well plate. […] Quantification of cell viability was assessed using a Cell Counting Kit-8 (Dojindo, Kumamoto, Japan). […]

[3] = test system: ICAM-1; assay: Aortic mRNA expression by QRT-PCR, ICAM-1; assay type: in vivo, rat; details: GK rats, LA therapy
Experimental: An expression of a number of inflammatory markers, including IL-6 and ICAM-1, were measured in control, diabetic and LA-treated diabetic vessels. The results confirmed marked elevation in the vascular expression of both […] and ICAM-1 during diabetes, as shown in FIGS. 11A and 11B. […] Aortic expression of IL-6 is shown in FIG. 11A and aortic expression of intracellular adhesion molecule (ICAM-1) is shown in FIG. 11B. Both were determined using QRT-PCR based techniques.

[4] = test system: diabetic fibroblasts; assay: Inflammatory cytokine transcription in fibroblasts, RT-PCR; assay type: cell-based, rat; details: lipoic acid 500 μM, Nrf2-dependent
Excerpt: as §1, with “The cells were grown under standard conditions, and the medium was changed every three to four days. Control and diabetic fibroblasts were grown under normo-glycemic conditions (5.5 mM glucose) and used in experiments at passage 3 to 5.” left out
With regard to cytokine transcription levels, Total RNA was isolated from cultured fibroblasts using Trizol reagent (Invitrogen) and 1 μg from each sample was reverse transcribed for 1 hr at 37° C. using the High Capacity cDNA Reverse Transcription Kit. Real-time quantitative RT-PCR was performed with the TaqMan Gene Expression Assay and was normalized against […] using an ABI 7900 Real-time PCR System (Applied Biosystems). […]

[5] = test system: rat aortic rings; assay: Acetylcholine-induced endothelium dependent relaxation of aortic rings in organ chamber; assay type: in vivo; details: GK diabetic rats
Experimental: In the experiments, with regard to the determination of endothelium dependent relaxation (EDR) in the aorta, EDR in response to various concentrations of acetylcholine (Ach) (10^−9 to 10^−6 mol/l) was assessed in norepinephrine (10^−7 mol/l) preconstructed rat aortic rings using an organ chamber bath. The effects of the NAD(P)H oxidase inhibitor apocynin (3×10^−4 mol/l) and the O2^− scavenger Tiron (10 mmol/l) on Ach-induced responses of diabetic arteries were also considered.

[6] = test system: NF-κB; assay: NF-κB expression by western blotting, HEK-499; assay type: cell-based; details: HEK-499 cells exposed to α-lipoic acid
Excerpt: Alpha-lipoic acid increased HEK-499 cells, which were engineered to be resistant to chemotherapies and radiotherapies by depleting Raf Kinase inhibitory protein resistance to lethal doses of cisplatin, a chemical used in cancer therapy.

[7] = test system: aortic vessels; assay: Dihydroethidium / ethidium bromide fluorescence of aortic sections; assay type: in vivo, rat; details: LA-treated diabetic rats
Experimental: Dihydroethidium (DHE), an oxidative fluorescent dye, was used to localize superoxide production in situ. DHE is oxidized on reaction with superoxide to ethidium bromide, which binds to DNA in the nucleus and fluoresces. Arteries were embedded in OCT medium, frozen and cryosectioned. Vascular sections were incubated with DHE at a concentration (10^−6 mol/l) at 37° C. for 30 minutes. DHE images from serial sections were obtained using a Zeiss Axioplan 2000 fluorescence microscope.

O=C(O)CCCCC1CCSS1 (stereo not drawn) [LA, alpha-lipoic acid]
NAD(P)H oxidase driven O2− generation in homogenates of diabetic aorta [1]: significantly attenuated
protection of cell viability from hydrogen peroxide [2]: protected
diabetic vascular proinflammatory phenotype, aortic expression of ICAM-1 [3]: partially reversed
transcription of inflammatory cytokines in diabetic fibroblasts [4]: decreases
decline in acetylcholine (Ach)-induced relaxation of rat aorta ([5]; LA 50 mg/kg i.p. daily for four weeks): ameliorated
beneficial effect on Ach-induced relaxation after discontinuation ([5]; two weeks after discontinuation of LA): not evident
NF-κB expression [6]: significant increase
nuclear EB fluorescence in aortic vessels [7]: significantly reduced
